According to patent publication US10709791B2, “Stabilized polymeric carriers for therapeutic agent delivery” (University of Washington, priority 2014, dated 2020):
Square brackets hold non-standard residues; d marks the D form. Peptide text beside a SMILES is read from it. * marks the point of attachment. Methacryloyl = C=C(C)C(=O)*; Ahx = NCCCCCC(=O)O

Legend:
[1] = human serum, 37° C., at 120 h
Description: The drug release studies were conducted at 37° C. and free drug detection was quantified using an elution gradient profile at 277 nm. The studies were conducted with deprotected monomers and polymers.
HPLC was used to quantify drug release by detecting free drug as a function of time normalized to amount of drug present during initial incubation. This in turn was standardized to the total available drug in the system as quantified by dissolving a known amount of polymer in 10% aq. H2SO4 for 48 h at 25° C. Using a Cipro standard curve, the total amount of drug in the polymers was validated against compositional values obtained from ^19F NMR. […]
Absorbance Detector, and Agilent ChemStation software for LC system (Palo Alto, Calif.). […]
Both non-serum (mobile phase:deionized water) and serum standards were subsequently treated with 50% acetonitrile (v/v) to promote protein precipitation. […] Non-serum standards were analysed without the need for centrifugation. […]
The drug release from polymer conjugates was carried out in serum at 37° C. at a polymer concentration of 6 mg/mL. […] Quantification of total Cipro in the polymer conjugates was measured by taking 6 mg/mL of polymer and dissolving it in 10% aq. […] The HPLC with a gradient elution profile was used to quantify amount of drug released using the same instrument parameters set forth for drug standards. […]

[2] = target: butyrylcholinesterase (BChE) (Homo sapiens, UniProt P06276); settings: buffer with BChE, relative to buffer alone
Description: The drug release studies were conducted at 37° C. and free drug detection was quantified using an elution gradient profile at 277 nm.
Recombinant human butyrylcholinesterase (BChE) was obtained from R&D systems.

[3] = Serum stability of peptide macromonomers and polymers; assay type: in vitro ADME, human; settings: 37° C., 0 to 12 hours, MALDI-TOF MS
Description: The stability of the peptide (FKFL) linker in the presence of serum proteases was evaluated by incubating the peptide monomers and polymers in human serum and analyzing the degradation products over time. Peptide (40 mM, DMSO) or polymer (4 mM, PBS) was added to human serum to a final peptide/polymer concentration of 400 μM and incubated at 37° C. At various time points, 40 μL aliquots of the mixture were withdraw and 40 μL of acetonitrile was added to precipitate serum proteins and halt protease degradation. Precipitated solutions were centrifuged at 13,000 rpm for 10 min and supernatants were analyzed by MALDI-TOF MS using a Bruker Autoflex II.

Human liver cathepsin B = target: T1, Human liver cathepsin B (Homo sapiens, UniProt P07858); assay: Cathepsin B cleavage assay; assay type: biochemical; settings: for cathepsin B cleavage of FKFL linker and peptide release: RP-HPLC and MS
T1 construct: purchased Enzo Life Sciences; host or cells: human liver
Description: Human liver cathepsin B (Enzo Life Sciences) was activated for 15 minutes in a solution of 0.158 mg/mL cathepsin B, 20 mM DTT, and 10 mM EDTA at 37° C. Peptide or polymer was then solubilized in reaction buffer (10 mM phosphate, 1 mM EDTA, pH 6.6, 37° C.) and added to the enzyme solution for a final concentration of 1.28 μg/mL cathepsin B and […] peptide/polymer. […] Cleavage of the polymers was also visualized by SDS-PAGE on 8-16% Tris-Glycine Gels (Bio-Rad). For protein gel analyses, reactions were conducted at 3× concentration and 160 μg of polymer was loaded per well.

[4] = test system: SKOV3 human ovarian cancer cells; settings: 10 μM, 72 hours
Description: Induction of apoptosis was measured with a FITC Annexin V/Dead Cell Apoptosis Kit (Invitrogen) as per the manufacturer's instructions. SKOV3s cells were plated in 6-well plates at a density of 120,000 cells per well and treated with 10 μM polymer solutions for 72 hours. After 72 hours, cells were trypsinized, rinsed in PBS, centrifuged, stained with FITC-annexin V, and analyzed on a BD LSRII flow cytometer.

caspase 3/7 = settings: 10 μM, 72 hours
Description: Caspase 3/7 activity was measured using a SensoLyte Homogenous AMC Caspase-3/7 Assay Kit (AnaSpec). SKOV3 cells were plated in a black 96-well plate with a clear bottom at a density of 7,000 per well and then treated with polymer (0-10 μM) for 72 hours. Assay reagents were mixed with cell culture medium as per the manufacturer's instructions, incubated for 24 hours, and fluorescence (ex/em=380 nm/500 nm) was measured using a plate reader. Percent caspase 3/7 activity was calculated relative to untreated cell cultures.

Chain of butyrylcholinesterase (BChE) (P06276 29-602): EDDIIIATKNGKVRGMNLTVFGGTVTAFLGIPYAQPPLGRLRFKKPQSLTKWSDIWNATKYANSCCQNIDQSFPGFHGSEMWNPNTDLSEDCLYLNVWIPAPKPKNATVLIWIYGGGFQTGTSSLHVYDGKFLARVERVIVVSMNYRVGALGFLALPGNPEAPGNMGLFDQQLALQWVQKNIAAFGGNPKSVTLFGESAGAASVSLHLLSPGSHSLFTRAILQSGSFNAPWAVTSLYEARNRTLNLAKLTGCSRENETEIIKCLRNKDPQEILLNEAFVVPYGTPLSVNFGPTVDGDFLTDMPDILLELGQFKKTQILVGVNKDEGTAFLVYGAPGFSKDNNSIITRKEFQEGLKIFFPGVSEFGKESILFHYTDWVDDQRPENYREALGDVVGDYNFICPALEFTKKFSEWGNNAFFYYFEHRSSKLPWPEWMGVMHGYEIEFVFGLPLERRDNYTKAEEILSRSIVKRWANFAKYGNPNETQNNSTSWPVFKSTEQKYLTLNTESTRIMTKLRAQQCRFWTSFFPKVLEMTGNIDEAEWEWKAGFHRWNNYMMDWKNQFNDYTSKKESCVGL

| Compound | effect of added BChE on ester hydrolysis [2] | cells staining positive for annexin V [4] | cathepsin B cleavage of FKFL linker and peptide release (Human liver cathepsin B) | caspase 3/7 activity relative to untreated cells (caspase 3/7) | further results |
| --- | --- | --- | --- | --- | --- |
| C=C(C)C(=O)OCCOC(=O)c1cn(C2CC2)c2cc(N3CCN(C(=O)OC(C)(C)C)CC3)c(F)cc2c1=O [HBC, (hydroxyethyl)methacrylate-boc-ciprofloxacin] | increases hydrolysis | – | – | – | drug release [1]: ~50% |
| C=C(C)C(=O)NCCCCCC(=O)N[C@@H](Cc1ccccc1)C(=O)N[C@@H](CCCCN)C(=O)N[C@@H](Cc1ccccc1)C(=O)N[C@@H](CC(C)C)C(=O)NCCCCCC(=O)N[C@@H](CC(C)C)C(=O)N[C@@H](CCCNC(=N)N)C(=O)N[C@@H](CCSC)C(=O)N[C@@H](CCCNC(=N)N)C(=O)N[C@@H](CCC(=O)O)C(=O)N[C@H](C(=O)N[C@H](C(=O)N[C@@H](CC(=O)O)C(=O)N[C@@H](C)C(=O)N[C@@H](Cc1ccc(O)cc1)C(=O)N[C@@H](CCC(=O)O)C(=O)N[C@@H](CCCNC(=N)N)C(=O)N[C@@H](CCC(N)=O)C(=O)N[C@@H](Cc1ccccc1)C(=O)NCC(=O)N[C@@H](CCC(=O)O)C(=O)N1CCC[C@H]1C(=O)N[C@@H](CC(N)=O)C(=O)N[C@H](C(=O)N[C@@H](Cc1c[nH]c2ccccc12)C(=O)N[C@@H](C)C(N)=O)[C@@H](C)CC)[C@@H](C)CC)[C@@H](C)CC [MaAhxFKFLAhxScrBIM] ({Methacryloyl-Ahx}-FKFL[Ahx]LRMREIIDAYERQFGEPNIWA-NH2) | – | – | – | – | stability of the FKFL linker in human serum [3]: intact peptide monomer (3437 Da) was detectable after 12 hours; cleavage at the FKFL linker (Human liver cathepsin B; by 20 minutes): 100% |
| ciprofloxacin-(phenol)methacrylate [CPM] | increases hydrolysis | – | – | – | – |
| poly[(DEAEMA)-co-(BMA)]-b-[(PEGMA300)-c-(MaAhxFKFLAhxBIM)] [PolBIM] | – | 87% | release the desired (2980 Da) peptide product | more than 8 fold | – |
| poly[(DEAEMA)-co-(BMA)]-b-[(PEGMA300)-c-(MaAhxFKFLAhxScrBIM)] [PolScrBIM] | – | 15% | release the desired (2980 Da) peptide product | no change | – |
